The values that follow come from patent US10654883B2, “Inorganic salts of nicotinic acid mononucleotide as anti-aging agents” (Jumpstart Fertility Pty Ltd, priority 2018, dated 2020).

In one series the test system is COV434 cells. Nature of the series: NAD cell assay (NAD cycling method) in COV434 cells. Format: cell-based, human. Conditions: 200 uM, 4 hr; for Fold increase compared to NaMN (NAD level): NAD normalised to protein. How it is done: NAD levels were assayed based on the NAD cycling method of Zhu and Rand, PLoS One (2012), herein incorporated by reference. COV434 cells were maintained in 6 well plates and treated with the indicated compounds at a concentration of 200 uM for 4 hr. Media was removed, plates were washed in cold PBS and cells were scraped down in NAD extraction buffer containing 10 mM nicotinamide, 50 mM Tris HCl, 0.1% Triton X-100. Cells were homogenised by sonication for 5 seconds, and samples were centrifuged at 7,000 g for 5 min at 4 degrees. Aliquots were taken for later protein assay, and samples were then passed through 10 kDa amicon filters at 14,000 g, 30 min at 4 degrees to remove proteins from the sample. Each sample was measured in technical triplicate, with 25 μL sample added to 100 μL ADH cycling mix (0.2 mg/ml alcohol dehydrogenase enzyme, 2% ethanol, 100 mM Tris pH 8.5). Samples were allowed to cycle for 10 min at room temperature, followed by 50 μL addition of an MTT/PMS solution (0.1 mM phenazine methosulfate, 0.8 mM 3-(4,5-Dimethylthiazol-2-yl)-2,5-diphenyltetrazoliwn bromide), 100 mM Tris-HCl pH 8.5). Plates were then incubated for 15 min and absorbance was measured at 570 nm. NAD concentrations were extrapolated from a standard curve, and normalised to protein concentrations determined by BCA protein assay.

Series [1] can be described thus: Solution stability in aqueous solution (D2O), degradation measured by 1H-NMR. How it is done: Three separate 5 mg samples of the same batch of NaMN were completely dissolved without stirring in 0.5 ml of deuterated water (D2O), each in three separate NMR tubes. All three samples were analysed at the time of dissolution via ^1H-NMR for purity.
The first NMR tube was maintained at a temperature of 25° C. The second NMR tube was maintained at a temperature of 40° C. The third NMR tube was maintained at a temperature of 60° C. Degradation of the control NaMN was measured using ^1H-NMR. Degradation of the control NaMN in aqueous solutions was analyzed over a period of 36 weeks (see FIG. 1).
The stability of the salts I-001, I-002, I-003, and I-004 in aqueous solution phase was also tested. Following the same procedure described in the control NaMN, the respective solutions of I-001, I-002, I-003, and I-004 were maintained at 25° C. and analysed for 38 weeks.

Structures are written as SMILES.

As for `CC(=O)O[C@@H]1[C@H](OC(C)=O)[C@@H](COP(=O)([O-])O)O[C@H]1[n+]1cccc(C(=O)[O-])c1.[Na+]` [Compound I-008, Sodium 1-((2R,3R, 4R, 5R)-3,4-diacetoxy-5-(((hydrogenphosphonato)oxy)methyl)tetrahydrofuran-2-yl)pyridine-1-ium-3-carboxylate], in the series with COV434 cells, the “Fold increase compared to NaMN (NAD level)” value is recorded as 0.8 and the “Fold Increase compared to NaMN on a molar basis (NAD level)” value is listed as 0.99.
Consider `O=C(O)c1ccc[n+]([C@@H]2O[C@H](COP(=O)(O)O)[C@@H](O)[C@H]2O)c1` [NaMN, nicotinic acid mononucleotide], for which the “degradation in aqueous solution” value in series [1] (25° C., week 10, D2O, 1H-NMR) is “about 12.3%”; in series [1] (40° C., week 2, D2O, 1H-NMR, study halted), 15.3%; in series [1] (60° C., after a week, D2O, 1H-NMR, study halted), 35%. Also, the “Fold increase compared to NaMN (NAD level)” value in the series with COV434 cells was found to be 1.0. In the series with COV434 cells, the “Fold Increase compared to NaMN on a molar basis (NAD level)” value came out at 1.0.
Consider `CC(=O)O[C@@H]1[C@H](OC(C)=O)[C@@H](COP(=O)([O-])O)O[C@H]1[n+]1cccc(C(=O)[O-])c1.[K+]` [Compound I-009, potassium 1-((2R,3R, 4R, 5R)-3,4-diacetoxy-5-(((hydrogenphosphonato)oxy)methyl)tetrahydrofuran-2-yl)pyridine-1-ium-3-carboxylate], for which, in the series with COV434 cells, the “Fold increase compared to NaMN (NAD level)” value was 1.0 and the “Fold Increase compared to NaMN on a molar basis (NAD level)” value came to 1.39.
With `O=C([O-])c1ccc[n+]([C@@H]2O[C@H](COP(=O)([O-])[O-])[C@@H](O)[C@H]2O)c1.[K+].[K+]` [Compound I-004, Potassium 1-((2R,3R,4S,5R)-3,4-dihydroxy-5-((phosphonatooxy)methyl)-tetrahydrofuran-2-yl)pyridine-1-ium-3-carboxylate], the “degradation in aqueous solution” value in series [1] (7 weeks, 10 mg/mL) is given as “under 2%”. Besides, the “degradation in aqueous solution” value in series [1] (34 weeks, 10 mg/mL) turned out to be 2.6%. Besides, in the series on COV434 cells, the “Fold increase compared to NaMN (NAD level)” value was determined as 1.3 and the “Fold Increase compared to NaMN on a molar basis (NAD level)” value was 1.57.
Regarding `O=C([O-])c1ccc[n+]([C@@H]2O[C@H](COP(=O)([O-])[O-])[C@@H](O)[C@H]2O)c1.[Na+].[Na+]` [Compound I-003, Sodium 1-((2R,3R,4S,5R)-3,4-dihydroxy-5-((phosphonatooxy)methyl)-tetrahydrofuran-2-yl)pyridine-1-ium-3-carboxylate], the “degradation in aqueous solution” value in series [1] (7 weeks, 10 mg/mL) is listed as “under 2%”. Moreover, in the series with COV434 cells, the “Fold increase compared to NaMN (NAD level)” value is reported as 1.0 and the “Fold Increase compared to NaMN on a molar basis (NAD level)” value was 1.08.
`O=C([O-])c1ccc[n+]([C@@H]2O[C@H](COP(=O)([O-])O)[C@@H](O)[C@H]2O)c1.[K+]` [Compound I-002, Potassium 1-((2R,3R,4S,5R)-5-(((hydrogenphosphonato)oxy)methyl)-3,4-dihydroxytetrahydrofuran-2-yl)pyridine-1-ium-3-carboxylate]: the “degradation in aqueous solution” value in series [1] (7 weeks, 10 mg/mL) is reported as “under 2%”. Also, the “degradation in aqueous solution” value in series [1] (24 weeks, 10 mg/mL) stood at 4.7%. Further, in the series with COV434 cells, the “Fold increase compared to NaMN (NAD level)” value is given as 0.8 and the “Fold Increase compared to NaMN on a molar basis (NAD level)” value amounted to 0.84.
Regarding `O=C([O-])c1ccc[n+]([C@@H]2O[C@H](COP(=O)([O-])[O-])[C@@H](O)[C@H]2O)c1.[K+].[Na+]` [Compound I-006, Potassium sodium 1-((2R,3R,4S,5R)-3,4-dihydroxy-5-((phosphonatooxy)methyl)tetrahydrofuran-2-yl)pyridine-1-ium-3-carboxylate], in the series with COV434 cells, the “Fold increase compared to NaMN (NAD level)” value is reported as 2.3 and the “Fold Increase compared to NaMN on a molar basis (NAD level)” value was 2.72.
As for `O=C([O-])c1ccc[n+]([C@@H]2O[C@H](COP(=O)([O-])O)[C@@H](O)[C@H]2O)c1.[Na+]` [Compound I-001, Sodium 1-((2R,3R,4S,5R)-5-(((hydrogenphosphonato)oxy)methyl)-3,4-dihydroxytetrahydrofuran-2-yl)pyridine-1-ium-3-carboxylate], the “degradation in aqueous solution” value in series [1] (7 weeks, 10 mg/mL) is given as “under 2%”; in series [1] (38 weeks, 10 mg/mL) it was 4.3%. Moreover, in the series with COV434 cells, the “Fold increase compared to NaMN (NAD level)” value is 3.0. For the same compound, the “Fold Increase compared to NaMN on a molar basis (NAD level)” value in the series with COV434 cells is on record as 3.23.
